Measurements: patent publication US20240336602A1 (Katholieke Universiteit Leuven, priority 2020, published 2024)

Each compound was assayed against T1, mouse TRPM3a2 (mTRPM3) ion channel (Mus musculus, UniProt J9SQF3) (assay: TRPM3 ion channel driven Ca2+ uptake, Fluo-4 AM assay (PS-stimulated, overexpressing flip-in HEK293 cells)). Details: PS (50 μM) stimulated Ca2+ influx, HEK293, cpds 300-399.
T1 construct: expressed in transfected cells; host or cells: flip-in HEK293
Type: cell-based
Procedure, shortened: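 Flip-in HEK293 cells overexpressing mTRPM3α2, loaded with Fluo-4 AM, were added to wells with compound plus 50 μM pregnenolone sulfate in Ca2+-containing Krebs buffer and read immediately (ex 485/em 535 nm). Percent inhibition was scaled between PS-plus-vehicle and positive-control-inhibitor signals.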

T1 sequence (J9SQF3 1-1709 isoform J9SQF3-12): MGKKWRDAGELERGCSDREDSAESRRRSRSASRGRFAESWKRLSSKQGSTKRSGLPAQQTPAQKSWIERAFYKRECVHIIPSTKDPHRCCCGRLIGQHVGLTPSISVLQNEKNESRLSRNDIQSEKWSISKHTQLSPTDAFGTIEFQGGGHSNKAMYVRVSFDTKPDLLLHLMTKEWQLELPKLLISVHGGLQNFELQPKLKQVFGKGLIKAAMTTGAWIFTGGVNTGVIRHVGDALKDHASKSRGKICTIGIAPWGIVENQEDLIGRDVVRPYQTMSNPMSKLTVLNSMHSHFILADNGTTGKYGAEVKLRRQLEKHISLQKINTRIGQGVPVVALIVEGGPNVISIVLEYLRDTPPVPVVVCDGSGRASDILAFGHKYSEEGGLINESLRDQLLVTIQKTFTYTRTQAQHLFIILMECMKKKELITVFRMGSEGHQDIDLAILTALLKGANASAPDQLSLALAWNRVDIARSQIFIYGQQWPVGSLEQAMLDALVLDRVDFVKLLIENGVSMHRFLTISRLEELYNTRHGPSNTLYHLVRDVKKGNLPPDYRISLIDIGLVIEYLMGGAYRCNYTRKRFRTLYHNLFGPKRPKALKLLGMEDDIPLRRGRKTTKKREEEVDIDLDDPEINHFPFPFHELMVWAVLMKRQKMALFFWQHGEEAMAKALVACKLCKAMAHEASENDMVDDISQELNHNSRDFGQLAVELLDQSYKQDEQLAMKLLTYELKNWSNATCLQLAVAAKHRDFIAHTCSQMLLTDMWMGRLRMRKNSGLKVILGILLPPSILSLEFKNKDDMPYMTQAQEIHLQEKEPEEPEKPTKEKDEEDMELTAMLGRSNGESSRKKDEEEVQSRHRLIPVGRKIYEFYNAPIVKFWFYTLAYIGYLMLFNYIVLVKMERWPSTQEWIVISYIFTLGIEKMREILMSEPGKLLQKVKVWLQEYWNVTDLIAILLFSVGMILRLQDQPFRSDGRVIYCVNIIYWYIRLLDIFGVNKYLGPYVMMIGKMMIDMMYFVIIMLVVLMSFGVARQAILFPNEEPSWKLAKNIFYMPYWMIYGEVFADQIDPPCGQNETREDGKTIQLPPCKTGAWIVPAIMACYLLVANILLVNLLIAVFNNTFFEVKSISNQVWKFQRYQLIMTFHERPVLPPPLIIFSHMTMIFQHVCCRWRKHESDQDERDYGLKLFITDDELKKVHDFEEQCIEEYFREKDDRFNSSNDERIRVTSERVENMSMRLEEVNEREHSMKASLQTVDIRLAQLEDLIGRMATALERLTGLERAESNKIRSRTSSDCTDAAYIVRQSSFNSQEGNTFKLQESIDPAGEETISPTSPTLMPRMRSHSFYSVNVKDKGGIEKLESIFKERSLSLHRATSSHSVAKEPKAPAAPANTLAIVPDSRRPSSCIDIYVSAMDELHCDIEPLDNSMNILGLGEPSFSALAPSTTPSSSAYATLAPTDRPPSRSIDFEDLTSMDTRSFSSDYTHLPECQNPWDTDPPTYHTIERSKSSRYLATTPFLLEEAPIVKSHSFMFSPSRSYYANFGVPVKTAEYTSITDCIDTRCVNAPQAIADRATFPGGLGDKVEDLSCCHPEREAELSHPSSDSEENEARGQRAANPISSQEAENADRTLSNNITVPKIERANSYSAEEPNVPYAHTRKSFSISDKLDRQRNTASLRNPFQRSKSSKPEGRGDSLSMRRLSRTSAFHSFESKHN

Q: COc1ncccc1COc1ccc2oc(C(F)F)c(C(=O)NC3(CO)CCOCC3)c2c1 [cpd 312, 2-(difluoromethyl)-N-(4-(hydroxymethyl)tetrahydro-2H-pyran-4-yl)-5-((2-methoxypyridin-3-yl)methoxy)benzofuran-3-carboxamide] was tested. Which IC50 did it give?
A: 1000 to 20000 nM

Q: For Cc1ncsc1COc1ccc2oc(C)c(C(=O)NC3(CO)CC3)c2c1F [cpd 327, 4-fluoro-N-(1-(hydroxymethyl)cyclopropyl)-2-methyl-5-((4-methylthiazol-5-yl)methoxy)benzofuran-3-carboxamide], which IC50 is on record?
A: 1000 to 20000 nM

Q: Cc1oc2ccc(OCc3nccn3CC(F)F)cc2c1C(=O)NC1(CO)CCOCC1 [cpd 331, 5-((1-(2,2-difluoroethyl)-1H-imidazol-2-yl)methoxy)-N-(4-(hydroxymethyl)tetrahydro-2H-pyran-4-yl)-2-methylbenzofuran-3-carboxamide] was tested. Which IC50 did it give?
A: 1000 to 20000 nM

Q: Cc1oc2ccc(OCc3ncccc3C(F)F)cc2c1C(=O)NC1(CO)CCOCC1 [cpd 351, 5-((3-(difluoromethyl)pyridin-2-yl)methoxy)-N-(4-(hydroxymethyl)tetmhydro-2H-pyran-4-yl)-2-methylbenzofuran-3-carboxamide] was tested. Which IC50 did it give?
A: 1000 to 20000 nM

Q: Cc1ncsc1COc1cc(F)c2oc(C)c(C(=O)NC3(CO)CC3)c2c1 [cpd 366, 7-fluoro-N-(1-(hydroxymethyl)cyclopropyl)-2-methyl-5-((4-methylthiazol-5-yl)methoxy)benzofuran-3-carboxamide] was tested. Which IC50 did it give?
A: 1000 to 20000 nM

Q: Which IC50 does the source give for Cc1oc2c(F)cc(OCc3cccnc3O)cc2c1C(=O)NC1(CO)CCOCC1 [cpd 368, 7-fluoro-N-(4-(hydroxymethyl)tetrahydro-2H-pyran-4-yl)-5-((2-hydroxypyridin-3-yl)methoxy)-2-methylbenzofuran-3-carboxamide] here?
A: 1000 to 20000 nM

Q: Which IC50 does the source give for COc1ncccc1COc1cc(F)c2oc(C)c(C(=O)NC3(CO)CCOCC3)c2c1 [cpd 369, 7-fluoro-N-(4-(hydroxymethyl)tetrahydro-2H-pyran-4-yl)-5-((2-methoxypyridin-3-yl)methoxy)-2-methylbenzofuran-3-carboxamide] here?
A: 1000 to 20000 nM

Q: How did the IC50 turn out when Cc1oc2ccc(OCc3ccnn3CC(F)F)cc2c1C(=O)N[C@H](C(N)=O)[C@@H](C)O [cpd 381, N-((2S,3R)-1-amino-3-hydroxy-1-oxobutan-2-yl)-5-((1-(2,2-difluoroethyl)-1H-pyrazol-5-yl)methoxy)-2-methylbenzofuran-3-carboxamide] was run?
A: ≤ 1000 nM

Same assay, conditions: PS (50 μM) stimulated, cpds. 400-499

Q: Cc1oc2ccc(OCc3cccn(C)c3=O)cc2c1C(=O)NC1CCN(CCO)C1=O (stereo not drawn) [cpd 405, N-(1-(2-hydroxyethyl)-2-oxopyrrolidin-3-yl)-2-methyl-5-((1-methyl-2-oxo-1,2-dihydropyridin-3-yl)methoxy)benzofuran-3-carboxamide] was tested. Which IC50 did it give?
A: ≥ 20000 nM

Q: With Cc1oc2ccc(OCc3cccnc3O)cc2c1C(=O)NC1(C(N)=O)CC1 [cpd 479, N-(1-carbamoylcyclopropyl)-5-((2-hydroxypyridin-3-yl)methoxy)-2-methylbenzofuran-3-carboxamide] as the compound, how does the IC50 read?
A: 1000 to 20000 nM

Same assay, conditions: PS (50 μM) stimulated, cpds. 500-599

Q: For Cc1ncsc1COc1ccc2oc(C)c(C(=O)NC(C#N)C(N)=O)c2c1 (stereo not drawn) [cpd 502, N-(2-amino-1-cyano-2-oxoethyl)-2-methyl-5-((4-methylthiazol-5-yl)methoxy)benzofuran-3-carboxamide], which IC50 is on record?
A: ≤ 1000 nM

Q: How did the IC50 turn out when Cc1ncsc1COc1ccc2oc(C)c(C(=O)NCC(N)=O)c2c1 [cpd 503, N-(2-amino-2-oxoethyl)-2-methyl-5-((4-methylthiazol-5-yl)methoxy)benzofuran-3-carboxamide] was run?
A: ≤ 1000 nM

Q: With Cc1ncsc1COc1ccc2oc(C)c(C(=O)NC3(CN)COC3)c2c1 [cpd 507, N-(3-(aminomethyl)oxetan-3-yl)-2-methyl-5-((4-methylthiazol-5-yl)methoxy)benzofuran-3-carboxamide] as the compound, how does the IC50 read?
A: 1000 to 20000 nM

Q: How did the IC50 turn out when Cc1oc2ccc(OCc3nccn3C)cc2c1C(=O)NC1(CO)COC1 [cpd 523, N-(3-(hydroxymethyl)oxetan-3-yl)-2-methyl-5-((1-methyl-1H-imidazol-2-yl)methoxy)benzofuran-3-carboxamide] was run?
A: 1000 to 20000 nM

Q: Cc1oc2ccc(OCc3nccn3C)cc2c1C(=O)NC1(C(N)=O)COC1 [cpd 578, N-(3-carbamoyloxetan-3-yl)-2-methyl-5-((1-methyl-1H-imidazol-2-yl)methoxy)benzofuran-3-carboxamide] was tested. Which IC50 did it give?
A: 1000 to 20000 nM

Same assay, conditions: PS (50 μM) stimulated, cpds. 600-666

Q: Cc1ncsc1COc1ccc2oc(C)c(C(=O)NC3(CO)CCOCC3)c2c1C [cpd 603, N-(4-(hydroxymethyl)tetrahydro-2H-pyran-4-yl)-2,4-dimethyl-5-((4-methylthiazol-5-yl)methoxy)benzofuran-3-carboxamide] was tested. Which IC50 did it give?
A: 1000 to 20000 nM

Q: With Cc1oc2ccc(OCc3ncn(C)n3)cc2c1C(=O)NC1(CO)CCOCC1 [cpd 606, N-(4-(hydroxymethyl)tetrahydro-2H-pyran-4-yl)-2-methyl-5-((1-methyl-1H-1,2,4-triazol-3-yl)methoxy)benzofuran-3-carboxamide] as the compound, how does the IC50 read?
A: 1000 to 20000 nM

Q: For Cc1oc2ccc(OCc3cncn3C)cc2c1C(=O)NC1(CO)CCOCC1 [cpd 607, N-(4-(hydroxymethyl)tetrahydro-2H-pyran-4-yl)-2-methyl-5-((1-methyl-1H-imidazol-5-yl)methoxy)benzofuran-3-carboxamide], which IC50 is on record?
A: 1000 to 20000 nM

Q: With Cc1oc2ccc(OCc3cccn(C)c3=O)cc2c1C(=O)NC1(CO)CCOCC1 [cpd 609, N-(4-(hydroxymethyl)tetrahydro-2H-pyran-4-yl)-2-methyl-5-((1-methyl-2-oxo-1,2-dihydropyridin-3-yl)methoxy)benzofuran-3-carboxamide] as the compound, how does the IC50 read?
A: 1000 to 20000 nM

Q: Which IC50 does the source give for Cc1oc2ccc(OCc3cccc(=O)n3C)cc2c1C(=O)NC1(CO)CCOCC1 [cpd 610, N-(4-(hydroxymethyl)tetrahydro-2H-pyran-4-yl)-2-methyl-5-((1-methyl-6-oxo-1,6-dihydropyridin-2-yl)methoxy)benzofuran-3-carboxamide] here?
A: 1000 to 20000 nM

Q: With Cc1nccc(COc2ccc3oc(C)c(C(=O)NC4(CO)CCOCC4)c3c2)n1 [cpd 612, N-(4-(hydroxymethyl)tetrahydro-2H-pyran-4-yl)-2-methyl-5-((2-methylpyrimidin-4-yl)methoxy)benzofuran-3-carboxamide] as the compound, how does the IC50 read?
A: 1000 to 20000 nM

Q: For Cc1coc(COc2ccc3oc(C)c(C(=O)NC4(CO)CCOCC4)c3c2)n1 [cpd 616, N-(4-(hydroxymethyl)tetrahydro-2H-pyran-4-yl)-2-methyl-5-((4-methyloxazol-2-yl)methoxy)benzofuran-3-carboxamide], which IC50 is on record?
A: 1000 to 20000 nM

Q: For Cc1csc(COc2ccc3oc(C)c(C(=O)NC4(CO)CCOCC4)c3c2)n1 [cpd 617, N-(4-(hydroxymethyl)tetrahydro-2H-pyran-4-yl)-2-methyl-5-((4-methylthiazol-2-yl)methoxy)benzofuran-3-carboxamide], which IC50 is on record?
A: 1000 to 20000 nM

Q: How did the IC50 turn out when Cc1cnc(COc2ccc3oc(C)c(C(=O)NC4(CO)CCOCC4)c3c2)cn1 [cpd 619, N-(4-(hydroxymethyl)tetrahydro-2H-pyran-4-yl)-2-methyl-5-((5-methylpyrazin-2-yl)methoxy)benzofuran-3-carboxamide] was run?
A: 1000 to 20000 nM

Q: With Cc1ccc(COc2ccc3oc(C)c(C(=O)NC4(CO)CCOCC4)c3c2)cn1 [cpd 622, N-(4-(hydroxymethyl)tetrahydro-2H-pyran-4-yl)-2-methyl-5-((6-methylpyridin-3-yl)methoxy)benzofuran-3-carboxamide] as the compound, how does the IC50 read?
A: 1000 to 20000 nM

Q: For Cc1oc2ccc(OCc3ncccn3)cc2c1C(=O)NC1(CO)CCOCC1 [cpd 626, N-(4-(hydroxymethyl)tetrahydro-2H-pyran-4-yl)-2-methyl-5-(pyrimidin-2-ylmethoxy)benzofuran-3-carboxamide], which IC50 is on record?
A: 1000 to 20000 nM

Q: Cc1oc2ccc(OCc3ccnc(O)c3)cc2c1C(=O)NC1(CO)CCOCC1 [cpd 628, N-(4-(hydroxymethyl)tetrahydro-2H-pyran-4-yl)-5-((2-hydroxypyridin-4-yl)methoxy)-2-methylbenzofuran-3-carboxamide] was tested. Which IC50 did it give?
A: 1000 to 20000 nM

Q: For COc1ccc(COc2ccc3oc(C)c(C(=O)NC4(CO)CCOCC4)c3c2)cn1 [cpd 632, N-(4-(hydroxymethyl)tetrahydro-2H-pyran-4-yl)-5-((6-methoxypyridin-3-yl)methoxy)-2-methylbenzofuran-3-carboxamide], which IC50 is on record?
A: 1000 to 20000 nM

Q: Which IC50 does the source give for Cc1oc2ccc(OCc3ccc4nccn4c3)cc2c1C(=O)NC1(CO)CCOCC1 [cpd 633, N-(4-(hydroxymethyl)tetrahydro-2H-pyran-4-yl)-5-(imidazo[1,2-a]pyridin-6-ylmethoxy)-2-methylbenzofuran-3-carboxamide] here?
A: 1000 to 20000 nM

Q: With Cc1oc2ccc(OCc3cccnc3C(F)(F)F)cc2c1C(=O)N(CCO)C1CCC1 [cpd 659, N-cyclobutyl-N-(2-hydroxyethyl)-2-methyl-5-((2-(trifluoromethyl)pyridin-3-yl)methoxy)benzofuran-3-carboxamide] as the compound, how does the IC50 read?
A: 1000 to 20000 nM

Same assay, conditions: PS (50 μM) stimulated, cpds. 667-751

Q: Which IC50 does the source give for Cc1cc(COc2ccc3oc(C)c(C(=O)N[C@@H](CO)C(N)=O)c3c2)on1 [cpd 674] here?
A: ≤ 1000 nM

Q: Cc1oc2ccc(OCc3c[nH]nc3C(F)(F)F)cc2c1C(=O)N[C@H](C(N)=O)[C@@H](C)O [cpd 685, N-((2S,3R)-1-amino-3-hydroxy-1-oxobutan-2-yl)-2-methyl-5-((3-(trifluoromethyl)-1H-pyrazol-4-yl)methoxy)benzofuran-3-carboxamide] was tested. Which IC50 did it give?
A: ≤ 1000 nM

Q: How did the IC50 turn out when Cc1oc2ccc(OCc3ncccc3C3CC3)cc2c1C(=O)NC1(CO)CCOCC1 [cpd 705, 5-((3-cyclopropylpyridin-2-yl)methoxy)-N-(4-(hydroxymethyl)tetrahydro-2H-pyran-4-yl)-2-methylbenzofuran-3-carboxamide] was run?
A: 1000 to 20000 nM
